Legend:
[1] = In vivo pharmacokinetics, plasma levels by LC-MS/MS; parameters: species or system male C57BL/6 mice; conditions: for parent compound (4 or 3) in plasma after i.v. dosing of the ester: 2 mg/kg intravenously
IL-6 = IL-6 in serum, LPS sepsis model; type: in vivo, C57BL/6 mice; conditions: serum 72 h after LPS
[2] = target: T1, Topo I-DNA cleavage complex (Homo sapiens, UniProt P11387); test: Topo I-mediated DNA cleavage assay; type: biochemical; conditions: EB-containing gel; for Topo I-mediated DNA cleavage (amount of nicked DNA): 100 μM or 50 μM
T1 sequence (P11387 1-765): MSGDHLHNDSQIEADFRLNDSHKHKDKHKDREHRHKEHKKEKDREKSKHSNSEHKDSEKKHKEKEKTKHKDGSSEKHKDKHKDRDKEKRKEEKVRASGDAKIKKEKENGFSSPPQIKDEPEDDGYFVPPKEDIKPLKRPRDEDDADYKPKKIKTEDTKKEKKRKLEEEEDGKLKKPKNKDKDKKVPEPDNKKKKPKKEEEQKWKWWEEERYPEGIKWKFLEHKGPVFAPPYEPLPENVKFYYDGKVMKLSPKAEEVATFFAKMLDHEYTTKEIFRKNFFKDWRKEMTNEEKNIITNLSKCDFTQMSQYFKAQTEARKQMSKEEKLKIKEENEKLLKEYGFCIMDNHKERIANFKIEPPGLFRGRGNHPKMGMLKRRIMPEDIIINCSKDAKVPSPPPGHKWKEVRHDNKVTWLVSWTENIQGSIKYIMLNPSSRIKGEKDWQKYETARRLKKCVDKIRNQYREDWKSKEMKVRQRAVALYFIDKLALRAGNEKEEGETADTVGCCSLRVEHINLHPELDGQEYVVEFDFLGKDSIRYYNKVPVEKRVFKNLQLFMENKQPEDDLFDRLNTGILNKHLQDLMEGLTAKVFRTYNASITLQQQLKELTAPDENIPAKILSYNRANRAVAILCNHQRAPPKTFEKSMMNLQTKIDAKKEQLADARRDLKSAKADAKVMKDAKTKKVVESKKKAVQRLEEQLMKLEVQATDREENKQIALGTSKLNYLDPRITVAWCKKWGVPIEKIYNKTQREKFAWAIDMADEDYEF

TNF-α = TNF-α in serum, LPS sepsis model; type: in vivo, C57BL/6 mice; conditions: serum 72 h after LPS
[3] = for body weight of treated mice: HepG-2 xenograft mice, treatment for 30 days, doses as in Figure 5
Topo I = target: T2, Topo I (Homo sapiens, UniProt P11387); test: Topo I inhibitory activity assay; type: biochemical
T2 sequence (P11387 1-765): T1 sequence (P11387 1-765)

MCF-7 = test: MTT cytotoxicity assay, MCF-7; type: cell-based, human; conditions: MCF-7, MTT, 48 h
MDA-MB-231 = test: MTT cytotoxicity assay, MDA-MB-231; type: cell-based, human; conditions: MDA-MB-231, MTT, 48 h
QGY-7703 = test: MTT cytotoxicity assay, QGY-7703; type: cell-based, human; conditions: QGY-7703, MTT, 48 h
BEL-7402 = test: MTT cytotoxicity assay, BEL-7402; type: cell-based, human; conditions: BEL-7402, MTT, 48 h
MGC80-3 = test: MTT cytotoxicity assay, MGC80-3; type: cell-based, human; conditions: MGC80-3, MTT, 48 h
HepG-2 = test: MTT cytotoxicity assay, HepG-2; type: cell-based, human; conditions: HepG-2, MTT, 48 h
SK-N-SH = test: MTT cytotoxicity assay, SK-N-SH; type: cell-based, human; conditions: 48 h
KB = test: MTT cytotoxicity assay, KB; type: cell-based, human; conditions: 48 h
SGC-7901 = test: MTT cytotoxicity assay, SGC-7901; type: cell-based, human; conditions: SGC-7901, MTT, 48 h
SMMC-7721 = test: MTT cytotoxicity assay, SMMC-7721; type: cell-based, human; conditions: SMMC-7721, MTT, 48 h
Aqueous solubility = conditions: parental compounds
A549 = test: MTT cytotoxicity assay, A549; type: cell-based, human; conditions: 48 h
[4] = 50 μM and 100 μM, EB-free gel (Figure 3a, 3b)

Question: For `CC[C@@]1(OC(=O)CNC(=O)CCC(=O)O)C(=O)OCc2c1cc1n(c2=O)Cc2cc3c4c(ccc3nc2-1)OC(C(C)C)NC4=O` (stereo partly drawn) [Compound 11, 4-((2-(((9S)-9-Ethyl-3-isopropyl-1,10,13-trioxo-1,2,3,9,10,12,13,15-octahydro-[1,3]oxazino[5,6-f]pyrano[3',4':6,7]indolizino[1,2-b]quinolin-9-yl)oxy)-2-oxoethyl)amino)-4-oxobutanoic acid], which “parent compound (4 or 3) in plasma after i.v. dosing of the ester” value ([1]; mice) is on record?
Answer: Its value is “very low concentration”.

Question: And the “concentration in plasma through oral administration” value ([1]; mouse, in vivo, po)?
Answer: Its value is “extremely low”.

Question: What about the “expression of IL-6 in mouse serum” value (IL-6) of the same compound?
Answer: Its value is “suppressed”.

Question: And the “Topo I-mediated DNA cleavage (stabilization of cleavage complex)” value ([2]; 50 μM)?
Answer: The value was “failed to stabilize Topo I-DNA cleavage complex”.

Question: And the “expression of TNF-α in mouse serum” value (TNF-α)?
Answer: The value was “suppressed”.

Question: And the “body weight of treated mice” value [3]?
Answer: Its value is “no major influence on body weight”.

Question: What about the “side effects, pathological anatomy of viscera” value ([3]; oral administration compared with the i.v. dosage) of the same compound?
Answer: Its value is “increases the occurrence of gastrointestinal flatulence”.

Question: What about the “Topo I inhibitory activity” value (Topo I; [4]) of the same compound?
Answer: Its value is “almost inactive”.

Question: Which IC50 (MCF-7) does the source give for “(9S)-9-Ethyl-9-hydroxy-3-isopropyl-2,3-dihydro-[1,3]oxazino[5,6-f]pyrano[3',4':6,7]indolizino[1,2-b]quinoline-1,10,13(9H,12H,15H)-trione [Compound 3]” here?
Answer: Its IC50 is 10800 nM.

Question: What about the IC50 (MDA-MB-231) of the same compound?
Answer: Its IC50 is 1320 nM.

Question: What about the IC50 (QGY-7703) of the same compound?
Answer: The IC50 was over 10000 nM.

Question: What about the IC50 (BEL-7402) of the same compound?
Answer: Its IC50 is over 10000 nM.

Question: What about the IC50 (MGC80-3) of the same compound?
Answer: Its IC50 is 390 nM.

Question: What about the IC50 (HepG-2) of the same compound?
Answer: Its IC50 is 1110 nM.

Question: What about the IC50 (SK-N-SH) of the same compound?
Answer: Its IC50 is 325 nM.

Question: What about the IC50 (KB) of the same compound?
Answer: Its IC50 is 9760 nM.

Question: And the IC50 (SGC-7901)?
Answer: The IC50 was over 10000 nM.

Question: What about the IC50 (SMMC-7721) of the same compound?
Answer: The IC50 was over 10000 nM.

Question: What about the “Topo I inhibitory activity” value (Topo I; 50 μM, EB-free gel (Figure 4)) of the same compound?
Answer: The value was “high”.

Question: What about the aqueous solubility (Aqueous solubility) of the same compound?
Answer: Its aqueous solubility is under 2 µg/mL.

Question: And the IC50 (A549)?
Answer: The IC50 was 2170 nM.

Question: For `CC[C@@]1(OC(=O)CNC(=O)CCC(=O)O)C(=O)OCc2c1cc1n(c2=O)Cc2cc3c(ccc4oc(C(C)C)nc43)nc2-1` [Compound 9, (S)-4-((2-((8-Ethyl-2-isopropyl-9,12-dioxo-9,11,12,14-tetrahydro-8H-oxazolo[4,5-f]pyrano[3',4':6,7]indolizno[1,2-b]quinolin-8-yl)oxy)-2-oxoethyl)amino)-4-oxobutanoic acid], which “parent compound (4 or 3) in plasma after i.v. dosing of the ester” value ([1]; mice) is on record?
Answer: Its value is “not detected”.

Question: And the “concentration in plasma through oral administration” value ([1]; single oral administration, mice)?
Answer: The value was “extremely low”.

Question: And the “expression of IL-6 in mouse serum” value (IL-6)?
Answer: Its value is “suppressed”.

Question: What about the “Topo I-mediated DNA cleavage (amount of nicked DNA)” value [2] of the same compound?
Answer: The value was “can increase the amount of nicked DNA”.

Question: And the “expression of TNF-α in mouse serum” value (TNF-α)?
Answer: The value was “suppressed”.

Question: And the “body weight of treated mice” value [3]?
Answer: Its value is “no major influence on body weight”.

Question: What about the “survival of xenograft mice on oral dosing” value ([3]; daily oral dose 5 mg/kg) of the same compound?
Answer: The value was “most mice failed to reach the end point”.

Question: What about the “Topo I inhibitory activity” value (Topo I; [4]) of the same compound?
Answer: Its value is “weak inhibition”.

Question: With `CC[C@@]1(O)C(=O)OCc2c1cc1n(c2=O)Cc2cc3c(CN(C)C)c(O)ccc3nc2-1` [Topotecan, reference compound] as the compound, how does the “Topo I-mediated DNA cleavage (amount of nicked DNA)” value [2] read?
Answer: Its value is “can increase the amount of nicked DNA”.

Question: Which results are given for `CC[C@@]1(O)C(=O)OCc2c1cc1n(c2=O)Cc2cc3c(ccc4oc(C(C)C)nc43)nc2-1` [Compound 4, (S)-8-Ethyl-8-hydroxy-2-isopropyl-8H-oxazolo[4,5-f]pyrano[3',4':6,7]indolizino[1,2-b]quinoline-9,12(11H,14H)-dione]?
Answer: solubility (physchem): < 2 µg/mL; Topo I inhibitory activity (Topo I; 50 μM, EB-free gel (Figure 4)): weak inhibitor

Question: What does the source list for `CC[C@@]1(O)C(=O)OCc2c1cc1n(c2=O)Cc2cc3ccccc3nc2-1` [CPT, Camptothecin, reference compound]?
Answer: Topo I-mediated DNA cleavage (amount of nicked DNA) [2]: can increase the amount of nicked DNA; Topo I inhibitory activity (Topo I; [4]): can inhibit Topo I activity

Reference: PMC6668024 (Journal of medicinal chemistry, 2018)
